Data from patent US20250346569A1, “NEW DERIVATIVES FOR TREATING TRPM3 MEDIATED DISORDERS” (Katholieke Universiteit Leuven, priority 2022, published 2025).

Biological target: T1, mouse TRPM3α2 (mTRPM3) ion channel (Mus musculus, UniProt J9SQF3)
T1 construct: expressed in transfected cells; host or cells: flip-in HEK293
Test: Monitoring the TRPM3 ion channel driven Ca2+ uptake (Fluo-4 AM assay)
Type: cell-based
Settings: TRPM3 overexpressing flip-in HEK293 cells, channel stimulated with Pregnenolone sulfate (PS) 50 μM
Procedure: Monitoring the TRPM3 ion channel driven Ca^2+ uptake.
In order to monitor the inhibition of the mouse TRPM3α2 (mTRPM3) ion channel by the compounds of the invention, a cellular system making use of an mTRPM3alpha2 or hTRPM3 overexpressing cell line (flip-in HEK293) was used. The TRPM3 channel was stimulated/opened with Pregnenolone sulfate (PS) (50 μM) which results in Ca^2+ influx.
For mTRPM3, the intracellular Ca^2+ was measured with a Calcium responsive dye, Fluor-4 AM ester (Invitrogen). Cells were cultured until a confluence of 80-90%, washed with Versene (Invitrogen) and detached from the surface by a short incubation with 0.05% Trypsin (Invitrogen). The trypsination process was stopped by the addition of complete cell culture medium (DMEM, glutamax,10% FCS,NEAA,Pen-Strep). Cells were collected and resuspended in Krebs buffer without Calcium at RT.
Prior the cell seeding (±2000 cells/well into a black, 384 well plate (Greiner)) the diluted compound was added in the assay plate, together with the PS dissolved in Krebs buffer containing Calcium. […] Directly after cell addition the plates were read on an Envision fluorescence reader (Perkin Elmer) by an Excitation of 485 nm and emission at 535 nm.
Channel inhibition was calculated compared to a non-PS stimulated control versus a condition stimulated with PS (50 μM) with vehicle. The ability of the compounds of the invention to inhibit this activity was determined as: Percentage inhibition=[1−((RFU determined for sample with test compound present−RFU determined for sample with positive control inhibitor) divided by (RFU determined in the presence of vehicle−RFU determined for sample with positive control inhibitor))]*100.
The activities of the Example compounds tested are depicted in the table below. The activity ranges A, B and C refer to IC50 values in the Fluo-4 AM assay as follows: “A”: IC50<1 μM; “B”: 1 μM≤IC50≤20 μM and “C”: IC50>20 μM

T1 sequence (J9SQF3 1-1709 isoform J9SQF3-12): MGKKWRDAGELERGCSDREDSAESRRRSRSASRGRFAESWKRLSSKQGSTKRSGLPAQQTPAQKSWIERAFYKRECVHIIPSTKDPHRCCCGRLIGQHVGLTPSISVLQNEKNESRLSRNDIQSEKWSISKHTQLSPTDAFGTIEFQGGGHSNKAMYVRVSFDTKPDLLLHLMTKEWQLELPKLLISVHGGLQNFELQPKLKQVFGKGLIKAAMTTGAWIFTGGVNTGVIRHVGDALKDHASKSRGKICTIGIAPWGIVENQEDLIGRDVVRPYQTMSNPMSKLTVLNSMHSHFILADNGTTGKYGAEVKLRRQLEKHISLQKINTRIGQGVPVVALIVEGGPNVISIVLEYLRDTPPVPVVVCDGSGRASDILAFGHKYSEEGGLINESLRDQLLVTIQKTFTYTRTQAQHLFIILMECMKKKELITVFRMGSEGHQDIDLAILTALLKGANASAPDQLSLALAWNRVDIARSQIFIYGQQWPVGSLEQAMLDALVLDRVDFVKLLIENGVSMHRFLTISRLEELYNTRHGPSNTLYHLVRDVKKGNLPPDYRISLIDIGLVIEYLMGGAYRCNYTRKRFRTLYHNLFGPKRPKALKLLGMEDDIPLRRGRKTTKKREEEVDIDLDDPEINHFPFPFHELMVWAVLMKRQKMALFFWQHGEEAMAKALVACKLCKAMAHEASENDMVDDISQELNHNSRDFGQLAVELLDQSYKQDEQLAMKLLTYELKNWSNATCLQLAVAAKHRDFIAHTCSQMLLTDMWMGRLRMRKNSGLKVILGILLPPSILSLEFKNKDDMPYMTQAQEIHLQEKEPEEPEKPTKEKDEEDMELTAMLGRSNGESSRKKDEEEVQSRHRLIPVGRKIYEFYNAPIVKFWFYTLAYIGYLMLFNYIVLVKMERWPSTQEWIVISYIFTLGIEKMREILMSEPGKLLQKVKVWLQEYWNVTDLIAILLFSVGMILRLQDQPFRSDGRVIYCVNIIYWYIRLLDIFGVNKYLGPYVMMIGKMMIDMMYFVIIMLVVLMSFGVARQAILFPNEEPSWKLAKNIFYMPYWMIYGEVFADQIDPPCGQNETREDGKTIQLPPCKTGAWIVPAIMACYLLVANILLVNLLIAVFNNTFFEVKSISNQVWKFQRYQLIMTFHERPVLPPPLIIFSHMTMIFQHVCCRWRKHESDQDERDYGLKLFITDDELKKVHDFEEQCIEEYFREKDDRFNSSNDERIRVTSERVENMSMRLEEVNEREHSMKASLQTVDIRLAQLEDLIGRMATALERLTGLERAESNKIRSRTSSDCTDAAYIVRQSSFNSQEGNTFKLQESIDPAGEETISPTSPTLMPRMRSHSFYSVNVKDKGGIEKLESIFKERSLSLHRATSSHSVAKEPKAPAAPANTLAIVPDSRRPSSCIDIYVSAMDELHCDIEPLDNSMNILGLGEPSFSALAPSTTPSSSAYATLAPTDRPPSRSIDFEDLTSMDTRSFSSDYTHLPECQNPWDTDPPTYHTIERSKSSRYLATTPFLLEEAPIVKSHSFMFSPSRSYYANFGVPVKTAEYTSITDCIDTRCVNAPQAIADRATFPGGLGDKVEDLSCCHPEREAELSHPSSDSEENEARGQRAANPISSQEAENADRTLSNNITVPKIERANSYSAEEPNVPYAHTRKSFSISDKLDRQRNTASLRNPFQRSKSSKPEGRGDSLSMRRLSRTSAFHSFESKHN

| SMILES | IC50 [nM] |
| --- | --- |
| Cc1ncsc1COc1ccc2sc(C)c(C(=O)NCCN(C)C)c2c1 [Cpd 118, N-[2-(dimethylamino)ethyl]-2-methyl-5-[(4-methyl-1,3-thiazol-5-yl)methoxy]-1-benzothiophene-3-carboxamide] | < 1000 |
| Cc1ncc(COc2ccc3sc(C)c(C(=O)NC4(CO)COC4)c3c2)s1 [Cpd 025, N-[3-(hydroxymethyl)oxetan-3-yl]-2-methyl-5-[(2-methyl-1,3-thiazol-5-yl)methoxy]-1-benzothiophene-3-carboxamide] | < 1000 |
| Cc1sc2ccc(OCc3cccnc3O)cc2c1C(=O)N[C@@H](CO)C(N)=O [Cpd 054, (2S)-3-hydroxy-2-({5-[(2-hydroxypyridin-3-yl)methoxy]-2-methyl-1-benzothiophen-3-yl}formamido)propanamide] | 1000 to 20000 |
| Cc1sc2ccc(OCc3ccccc3)cc2c1C(=O)NC1CN(C)CC1(F)F (stereo not drawn) [Cpd 120, 5-(benzyloxy)-N-(4,4-difluoro-1-methylpyrrolidin-3-yl)-2-methyl-1-benzothiophene-3-carboxamide] | < 1000 |
| O=C(NC1(CO)CCOCC1)c1c(C(F)F)sc2ccc(OCc3ccccc3)cc12 [Cpd 152, 5-(benzyloxy)-2-(difluoromethyl)-N-[4-(hydroxymethyl)oxan-4-yl]-1-benzothiophene-3-carboxamide] | > 20000 |
| CC(C)(O)CNC(=O)c1c(C(F)F)sc2ccc(OCc3ccccc3)cc12 [Cpd 014, 5-(benzyloxy)-2-(difluoromethyl)-N-(2-hydroxy-2-methylpropyl)-1-benzothiophene-3-carboxamide] | > 20000 |
| Cc1sc2ccc(OCc3ccccc3)cc2c1C(=O)NCC(C)(C)O [Cpd 100, 5-(benzyloxy)-N-(2-hydroxy-2-methylpropyl)-2-methyl-1-benzothiophene-3-carboxamide] | 1000 to 20000 |
| Cc1sc2ccc(OCc3cccnc3C(F)(F)F)cc2c1C(=O)NC1CCOC1 (stereo not drawn) [Cpd 097, 2-methyl-N-(oxolan-3-yl)-5-{[2-(trifluoromethyl)pyridin-3-yl]methoxy}-1-benzothiophene-3-carboxamide] | < 1000 |
| Cc1sc2ccc(OCc3ccccn3)cc2c1C(=O)NC1(CO)COC1 [Cpd 086, N-[3-(hydroxymethyl)oxetan-3-yl]-2-methyl-5-[(pyridin-2-yl)methoxy]-1-benzothiophene-3-carboxamide] | < 1000 |
| Cc1sc2ccc(OCc3ccccc3)cc2c1C(=O)NC1CCN(C)CC1 [Cpd 127, 5-(benzyloxy)-2-methyl-N-(1-methylpiperidin-4-yl)-1-benzothiophene-3-carboxamide] | 1000 to 20000 |
| Cc1sc2ccc(OCc3ccccn3)cc2c1C(=O)N[C@H](CO)C(N)=O [Cpd 057, (2R)-3-hydroxy-2-({2-methyl-5-[(pyridin-2-yl)methoxy]-1-benzothiophen-3-yl}formamido)propanamide] | < 1000 |
| Cc1ncsc1COc1ccc2sc(C)c(C(=O)NC3CCOC3)c2c1 (stereo not drawn) [Cpd 043, 2-methyl-5-[(4-methyl-1,3-thiazol-5-yl)methoxy]-N-(oxolan-3-yl)-1-benzothiophene-3-carboxamide] | < 1000 |
| Cc1ncsc1COc1ccc2sc(C)c(C(=O)NC(C)(C)C(N)=O)c2c1 [Cpd 031, 2-methyl-2-({2-methyl-5-[(4-methyl-1,3-thiazol-5-yl)methoxy]-1-benzothiophen-3-yl}formamido)propanamide] | < 1000 |
| Cc1ncsc1COc1ccc2sc(C)c(C(=O)N[C@@H]3CCN(CCO)C3=O)c2c1 [Cpd 028, N-[(3R)-1-(2-hydroxyethyl)-2-oxopyrrolidin-3-yl]-2-methyl-5-[(4-methyl-1,3-thiazol-5-yl)methoxy]-1-benzothiophene-3-carboxamide] | 1000 to 20000 |
| Cc1sc2ccc(OCc3ccccc3F)cc2c1C(=O)NC1(C(N)=O)CCOCC1 [Cpd 070, 4-{5-[(2-fluorophenyl)methoxy]-2-methyl-1-benzothiophene-3-amido}oxane-4-carboxamide] | < 1000 |
| CNC(=O)c1c(C)sc2ccc(OCc3scnc3C)cc12 [Cpd 137, N,2-dimethyl-5-[(4-methyl-1,3-thiazol-5-yl)methoxy]-1-benzothiophene-3-carboxamide] | 1000 to 20000 |
| Cc1sc2ccc(OCc3cccnc3C(F)(F)F)cc2c1C(=O)NC1CC(F)(F)C1 [Cpd 090, N-(3,3-difluorocyclobutyl)-2-methyl-5-{[2-(trifluoromethyl)pyridin-3-yl]methoxy}-1-benzothiophene-3-carboxamide] | > 20000 |

| SMILES | IC50 [nM] |
| --- | --- |
| Cc1sc2ccc(OCc3cccnc3C(F)(F)F)cc2c1C(=O)NC1CCNC1=O (stereo not drawn) [Cpd 094, 2-methyl-N-(2-oxopyrrolidin-3-yl)-5-{[2-(trifluoromethyl)pyridin-3-yl]methoxy}-1-benzothiophene-3-carboxamide] | < 1000 |
| Cc1sc2ccc(OCc3cccnc3C(F)(F)F)cc2c1C(=O)Nc1ccn(C)n1 [Cpd 092, 2-methyl-N-(1-methyl-1H-pyrazol-3-yl)-5-{[2-(trifluoromethyl)pyridin-3-yl]methoxy}-1-benzothiophene-3-carboxamide] | < 1000 |
| Cc1sc2ccc(OCc3ccccc3F)cc2c1C(=O)NC1(CO)CC1 [Cpd 074, 5-[(2-fluorophenyl)methoxy]-N-[1-(hydroxymethyl)cyclopropyl]-2-methyl-1-benzothiophene-3-carboxamide] | < 1000 |
| COc1ncccc1COc1ccc2sc(C)c(C(=O)N[C@@H](C)C(N)=O)c2c1 [Cpd 138, (2S)-2-({5-[(2-methoxypyridin-3-yl)methoxy]-2-methyl-1-benzothiophen-3-yl}formamido)propanamide] | < 1000 |
| Cc1ncc(COc2ccc3sc(C)c(C(=O)NC(C)(C)C(N)=O)c3c2)s1 [Cpd 018, 2-methyl-2-({2-methyl-5-[(2-methyl-1,3-thiazol-5-yl)methoxy]-1-benzothiophen-3-yl}formamido)propanamide] | < 1000 |
| Cc1sc2ccc(OCc3ccccc3)cc2c1C(=O)Nc1ccn(C)n1 [Cpd 091, 5-(benzyloxy)-2-methyl-N-(1-methyl-1H-pyrazol-3-yl)-1-benzothiophene-3-carboxamide] | < 1000 |
| Cc1sc2ccc(OCc3cccnc3O)cc2c1C(=O)NC1(CO)CCC1 [Cpd 079, N-[1-(hydroxymethyl)cyclobutyl]-5-[(2-hydroxypyridin-3-yl)methoxy]-2-methyl-1-benzothiophene-3-carboxamide] | 1000 to 20000 |
| Cc1ncsc1COc1ccc2sc(C)c(C(=O)N[C@H](CO)C(N)=O)c2c1 [Cpd 029, (2R)-3-hydroxy-2-({2-methyl-5-[(4-methyl-1,3-thiazol-5-yl)methoxy]-1-benzothiophen-3-yl}formamido)propanamide] | < 1000 |
| Cc1ncsc1COc1ccc2sc(C)c(C(=O)NC(C)(CO)CO)c2c1 [Cpd 032, N-(1,3-dihydroxy-2-methylpropan-2-yl)-2-methyl-5-[(4-methyl-1,3-thiazol-5-yl)methoxy]-1-benzothiophene-3-carboxamide] | < 1000 |
| Cc1sc2ccc(OCc3cccnc3C(F)(F)F)cc2c1C(=O)NCC1(N(C)C)CCCC1 [Cpd 113, N-{[1-(dimethylamino)cyclopentyl]methyl}-2-methyl-5-{[2-(trifluoromethyl)pyridin-3-yl]methoxy}-1-benzothiophene-3-carboxamide] | < 1000 |
| Cc1sc2ccc(OCc3ccccc3F)cc2c1C(=O)N[C@H](CO)C(N)=O [Cpd 056, (2R)-2-({5-[(2-fluorophenyl)methoxy]-2-methyl-1-benzothiophen-3-yl}formamido)-3-hydroxypropanamide] | < 1000 |
| Cc1sc2ccc(OCc3ccccc3)cc2c1C(=O)N[C@H]1CCNC1=O [Cpd 060, 5-(benzyloxy)-2-methyl-N-[(3S)-2-oxopyrrolidin-3-yl]-1-benzothiophene-3-carboxamide] | < 1000 |
| Cc1sc2ccc(OCc3ccccn3)cc2c1C(=O)NC1(CO)CCOCC1 [Cpd 082, N-[4-(hydroxymethyl)oxan-4-yl]-2-methyl-5-[(pyridin-2-yl)methoxy]-1-benzothiophene-3-carboxamide] | 1000 to 20000 |
| COc1ncccc1COc1ccc2sc(C)c(C(=O)NC3(CO)CC3)c2c1 [Cpd 142, N-[1-(hydroxymethyl)cyclopropyl]-5-[(2-methoxypyridin-3-yl)methoxy]-2-methyl-1-benzothiophene-3-carboxamide] | 1000 to 20000 |
| Cc1sc2ccc(OCc3ccccn3)cc2c1C(=O)NC1(CO)CCC1 [Cpd 078, N-[1-(hydroxymethyl)cyclobutyl]-2-methyl-5-[(pyridin-2-yl)methoxy]-1-benzothiophene-3-carboxamide] | < 1000 |
| Cc1sc2ccc(OCc3cccnc3C(F)(F)F)cc2c1C(=O)NCC1CCC(=O)N1 (stereo not drawn) [Cpd 103, 2-methyl-N-[(5-oxopyrrolidin-2-yl)methyl]-5-{[2-(trifluoromethyl)pyridin-3-yl]methoxy}-1-benzothiophene-3-carboxamide] | < 1000 |
